From patent publication US20250115597A1, “TYK2 INHIBITORS AND COMPOSITIONS AND METHODS THEREOF” (LYNK PHARMACEUTICALS CO. LTD., priority 2021, published 2025) come the findings set out here.

One data set concerns the target T1, TYK2-JH2 domain (Homo sapiens, UniProt P29597).
T1 construct: IC50 on JH2 domain activity (nM)
The data set can be described thus: Binding activity test for JH2 domain of TYK2 (Tb-antibody/tracer FRET). The following applies: for JAK1/TYK2 selectivity: ratio JAK1-JH2 IC50 / TYK2-JH2 IC50. How it is done:
(§1) Binding Activity Test for […] Domain of JAK1 and TYK2 The compounds are prepared in DMSO for 200× top dose, then serial dilute it with 27-fold for 3 more points. Add 8 μL/well in echo source plate, echo will add 75 nL/well with 3-fold serial dilution for 11 points in assay plate. 75 nL DMSO for high control and low control. […] For low control, add 5 μL/well assay buffer. And then spin down at 1000 rpm and centrifuge for 30 seconds. After enzyme system prepared, add 5 μL of Tb-antibody solution into each wells of assay plate. Spin down at 1000 rpm and centrifuge for 30 sec. After Tb-antibody added, also add 5 μL of tracer into the assay plate. Spin down at 1000 rpm and centrifuge for 30 sec. Incubate for 60 mins at 25° C. firstly and then continue to incubate the plate at 4° C. overnight. Read by envision in FRET mode. The Luminescence value was recorded by a multi-label reader Envision (PerkinElmer).

A further data set concerns the target T2, JAK1-JH2 domain (Homo sapiens, UniProt P23458).
T2 construct: IC50 on JH2 domain activity (nM)
As to the kind of experiment: Binding activity test for JH2 domain of JAK1 (Tb-antibody/tracer FRET). How it is done: as §1

The target of data set [1] is T3, Ba/F3-FL-TYK2-P760L cells (Homo sapiens, UniProt P29597, P760L, cells depend on it).
T3 construct: BaF3-FL-T2P760L (nM)
As to the kind of experiment: Anti-proliferative assay, Ba/F3-FL-TYK2-P760L cells (Cell-Titer Glo). Format: cell-based. The note with it: 72 h, read-out: BaF3-FL-T2P760L IC50. The method, boiled down: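 Ba/F3 cells made IL-3-independent by TEL-fused or full-length mutant JAK-family kinases, seeded at 2000/well and dosed after 24 h with 9 three-fold dilutions topping at 20 μM. Viability after 72 h at 37 °C, 5% CO2 by Cell-Titer Glo ATP luminescence.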

A short description of data set [2]: Microsomal metabolic stability assay. It counts as in vitro ADME. The following applies: pH 7.4, 0.5 mg/mL protein, 1 μM compound. The method, boiled down:
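Test article at 1 μM with 0.5 mg/mL microsomal protein and 2 mM NADPH, in 100 mM potassium phosphate pH 7.4 with 1.0 mM EDTA at 37 °C. Sampled at 0–45 min and quantified by LC/MS/MS. T1/2 from the slope of ln % remaining vs time.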

Where [3] appears, read: dog liver microsomes, read-out: Dog LM Clint.
Setting [4] is: dog liver microsomes, read-out: Dog LM T½.
The mark [5] stands for this setting: human liver microsomes, read-out: Human LM Clint.
Where [6] appears, read: human liver microsomes, read-out: Human LM T½.
Setting [7] is: rat liver microsomes, read-out: Rat LM Clint.
The mark [8] stands for this setting: rat liver microsomes, read-out: Rat LM T½.

Each structure is given as a SMILES string. Like-named read-outs stand apart in the source and are kept apart here.

T2 sequence (P23458 583-855 limits assumed): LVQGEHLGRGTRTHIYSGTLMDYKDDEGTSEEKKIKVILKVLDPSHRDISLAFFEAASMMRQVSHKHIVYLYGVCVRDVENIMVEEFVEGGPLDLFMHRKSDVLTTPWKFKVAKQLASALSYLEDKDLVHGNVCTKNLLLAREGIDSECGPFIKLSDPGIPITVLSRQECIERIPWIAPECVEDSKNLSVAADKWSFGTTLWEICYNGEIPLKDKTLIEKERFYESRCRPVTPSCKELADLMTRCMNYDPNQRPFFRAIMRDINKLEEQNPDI
T3 sequence (P29597 whole entry P760L): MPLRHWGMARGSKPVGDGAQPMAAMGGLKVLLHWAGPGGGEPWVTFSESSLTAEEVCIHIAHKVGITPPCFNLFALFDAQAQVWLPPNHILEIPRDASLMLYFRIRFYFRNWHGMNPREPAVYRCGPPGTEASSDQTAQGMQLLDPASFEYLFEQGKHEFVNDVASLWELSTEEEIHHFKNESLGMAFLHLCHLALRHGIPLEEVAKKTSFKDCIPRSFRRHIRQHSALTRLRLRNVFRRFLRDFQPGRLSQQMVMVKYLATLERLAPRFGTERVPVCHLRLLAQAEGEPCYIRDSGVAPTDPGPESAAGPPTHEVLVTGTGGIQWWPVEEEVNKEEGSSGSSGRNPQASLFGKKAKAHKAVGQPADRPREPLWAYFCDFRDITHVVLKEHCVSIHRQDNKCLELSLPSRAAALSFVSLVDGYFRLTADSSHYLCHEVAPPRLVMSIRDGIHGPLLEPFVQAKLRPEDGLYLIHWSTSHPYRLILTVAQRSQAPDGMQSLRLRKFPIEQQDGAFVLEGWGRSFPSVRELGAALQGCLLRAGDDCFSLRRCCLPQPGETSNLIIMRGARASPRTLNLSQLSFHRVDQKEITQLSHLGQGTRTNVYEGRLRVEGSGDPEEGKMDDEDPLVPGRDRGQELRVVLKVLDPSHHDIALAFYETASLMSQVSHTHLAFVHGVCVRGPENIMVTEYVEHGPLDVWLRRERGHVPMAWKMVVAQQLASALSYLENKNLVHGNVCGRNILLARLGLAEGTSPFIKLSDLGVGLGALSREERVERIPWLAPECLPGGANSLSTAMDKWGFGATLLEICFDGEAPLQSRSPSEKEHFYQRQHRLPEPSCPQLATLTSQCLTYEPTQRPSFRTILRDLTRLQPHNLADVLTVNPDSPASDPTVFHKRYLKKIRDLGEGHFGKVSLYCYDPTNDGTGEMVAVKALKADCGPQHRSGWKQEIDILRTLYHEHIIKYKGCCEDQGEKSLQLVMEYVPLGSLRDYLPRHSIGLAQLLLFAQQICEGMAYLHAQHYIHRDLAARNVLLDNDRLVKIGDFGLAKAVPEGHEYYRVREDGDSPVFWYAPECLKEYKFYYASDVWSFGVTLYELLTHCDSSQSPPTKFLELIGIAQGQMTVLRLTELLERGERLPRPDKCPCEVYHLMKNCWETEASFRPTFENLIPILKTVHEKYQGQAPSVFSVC
T1 sequence (P29597 589-875 limits assumed): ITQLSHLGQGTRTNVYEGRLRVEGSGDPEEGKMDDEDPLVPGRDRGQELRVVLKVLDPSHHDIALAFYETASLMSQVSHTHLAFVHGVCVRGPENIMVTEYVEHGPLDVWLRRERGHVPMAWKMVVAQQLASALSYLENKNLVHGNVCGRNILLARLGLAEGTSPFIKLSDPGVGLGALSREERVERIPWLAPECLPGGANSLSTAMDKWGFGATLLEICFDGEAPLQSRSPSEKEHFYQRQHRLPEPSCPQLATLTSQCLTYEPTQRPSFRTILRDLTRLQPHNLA

What is called IC50 is the concentration that inhibits the measured activity by half. For the compound `[2H]C([2H])([2H])NC(=O)c1cnc(Nc2ccc(N3CCOCC3)cn2)cc1Nc1ccc2cnn(CC)c2c1OC` [Example 273, 4-((1-Ethyl-7-methoxy-1H-indazol-6-yl)amino)-N-(methyl-d3)-6-((5-morpholinopyridin-2-yl)amino)nicotinamide], on TYK2-JH2 domain, the IC50 was 0.166 nM and the JAK1/TYK2 selectivity worked out at 16.1. Besides, the IC50 on JAK1-JH2 domain was 2.68 nM. For the same compound, the GI50 in data set [1] was 28.4 nM.
For the compound `[2H]C([2H])([2H])NC(=O)c1cnc(NC(=O)C2CC2)cc1Nc1ncc2cnn(CCC(F)(F)F)c2c1OC` [Example 275, 6-(Cyclopropanecarboxamido)-4-((7-methoxy-1-(3,3,3-trifluoropropyl)-1H-pyrazolo[4,3-c]pyridin-6-yl)amino)-N-(methyl-d3)nicotinamide], on TYK2-JH2 domain, the IC50 is 0.449 nM and the JAK1/TYK2 selectivity is reported as 60.2. The IC50 on JAK1-JH2 domain is 27 nM. Besides, the GI50 in data set [1] is 118 nM.
As to `[2H]C([2H])([2H])NC(=O)c1cnc(NC(=O)C2CC2)cc1Nc1ccn2ncc(C(C)C#N)c2c1OC` (stereo not shown) [Example 251, 4-((3-(1-Cyanoethyl)-4-methoxypyrazolo[1,5-a]pyridin-5-yl)amino)-6-(cyclopropanecarboxamido)-N-(methyl-d3)nicotinamide], at TYK2-JH2 domain, the IC50 amounted to 0.304 nM and the JAK1/TYK2 selectivity came out at 18.32. For the same compound, at JAK1-JH2 domain, the IC50 came to 5.57 nM. For the same compound, the GI50 in data set [1] amounted to 117 nM.
The like results for `[2H]C([2H])([2H])NC(=O)c1cnc(NC(=O)C2CC2)cc1Nc1ncc2ncn(CC)c2c1OC` [Example 260, 6-(Cyclopropanecarboxamido)-4-((1-ethyl-7-methoxy-1H-imidazo[4,5-c]pyridin-6-yl)amino)-N-(methyl-d3)nicotinamide] were, in that order, 0.124 nM, 78.9, 9.78 nM and 143 nM.
The like results for `[2H]C([2H])([2H])NC(=O)c1cnc(NC(=O)C2CC2)cc1Nc1ccn2ncc(OC)c2c1OC` [Example 278, 6-(Cyclopropanecarboxamido)-4-((3,4-dimethoxypyrazolo[1,5-a]pyridin-5-yl)amino)-N-(methyl-d3)nicotinamide] were, in that order, 0.385 nM, 25.0, 9.63 nM and 130 nM.
The like results for `[2H]C([2H])([2H])NC(=O)c1cnc(Nc2ccc(F)cn2)cc1Nc1ncc2cnn(C([2H])([2H])[2H])c2c1OC` [Example 277, 6-((5-Fluoropyridin-2-yl)amino)-4-((7-methoxy-1-(methyl-d3)-1H-pyrazolo[4,3-c]pyridin-6-yl)amino)-N-(methyl-d3)nicotinamide] were, in that order, 1.11 nM, 55.5, 61.4 nM and 60.2 nM.
In turn, `[2H]C([2H])([2H])NC(=O)c1nnc2cc1Nc1cc(cc(-c3ncn(C)n3)c1OC)COCc1cccc(n1)N2` [Example 68, 10-Methoxy-N-(methyl-d3)-11-(1-methyl-1H-1,2,4-triazol-3-yl)-15-oxa-2,4,5,8,21-pentaazatetracyclo[15.3.1.1^{3,7}.1^{9,13}]tricosa-1(21),3,5,7(23),9(22),10,12,17,19-nonaene-6-carboxamide] returned an IC50 at TYK2-JH2 domain of 0.4 nM. Further, the GI50 in data set [1] was determined as 42.1 nM. The microsomal CLint at 1 μM in data set [2] (setting [3]) worked out at 11.4 µL/min/mg; in data set [2] (setting [5]) it was 6.45 µL/min/mg; in data set [2] (setting [7]), 47.1 µL/min/mg. Moreover, the half-life at 1 μM came to 121 min in data set [2] (setting [4]), 215 min in data set [2] (setting [6]) and 29.4 min in data set [2] (setting [8]).
As for `[2H]C([2H])([2H])NC(=O)c1cnc(NC(=O)C2CC2)cc1Nc1cn(C)c2ncn([C@@H](C)C(F)(F)F)c(=O)c12` (single isomer, unassigned) [Example 234B, (S*)-6-(cyclopropanecarboxamido)-N-(methyl-d3)-4-((7-methyl-4-oxo-3-(1,1,1-trifluoropropan-2-yl)-4,7-dihydro-3H-pyrrolo[2,3-d]pyrimidin-5-yl)amino)nicotinamide], on TYK2-JH2 domain, the concentration for half-maximal inhibition (IC50) is 5.78 nM and the JAK1/TYK2 selectivity was determined as 42.2. Besides, at JAK1-JH2 domain, the IC50 amounted to 244 nM.
Turning to `[2H]C([2H])([2H])NC(=O)c1cnc(NC(=O)C2CC2)cc1Nc1cn(C)c2ccn(C(C)C(F)(F)F)c(=O)c12` (stereo not shown) [Example 190, 6-(Cyclopropanecarboxamido)-N-(methyl-d3)-4-((1-methyl-4-oxo-5-(1,1,1-trifluoropropan-2-yl)-4,5-dihydro-1H-pyrrolo[3,2-c]pyridin-3-yl)amino)nicotinamide], the IC50 on TYK2-JH2 domain worked out at 4.03 nM. Moreover, the GI50 in data set [1] was found to be 78.3 nM. The microsomal CLint at 1 μM in data set [2] (setting [3]) was 14.7 µL/min/mg; in data set [2] (setting [5]) it was 69.3 µL/min/mg; in data set [2] (setting [7]) it was 46.4 µL/min/mg. Further, the half-life at 1 μM in data set [2] (setting [4]) worked out at 94 min; in data set [2] (setting [6]), 20 min; in data set [2] (setting [8]) it was 29.9 min.
For the compound `[2H]C([2H])([2H])NC(=O)c1cnc(NC(=O)C2CC2)cc1Nc1cn(CC)c2ncn([C@@H](C)C(F)(F)F)c(=O)c12` (single isomer, unassigned) [Example 254B, (S*)-6-(cyclopropanecarboxamido)-4-((7-ethyl-4-oxo-3-(1,1,1-trifluoropropan-2-yl)-4,7-dihydro-3H-pyrrolo[2,3-d]pyrimidin-5-yl)amino)-N-(methyl-d3)nicotinamide], on TYK2-JH2 domain, the IC50 was 11.6 nM and the JAK1/TYK2 selectivity came out at 21.60. In addition, the IC50 at JAK1-JH2 domain is 252 nM.
For the compound `[2H]C([2H])([2H])NC(=O)c1cnc(NC(=O)C2CC2)cc1Nc1cn(C)c2ccn(CC(F)(F)F)c(=O)c12` [Example 110, 6-(Cyclopropanecarboxamido)-N-(methyl-d3)-4-((1-methyl-4-oxo-5-(2,2,2-trifluoroethyl)-4,5-dihydro-1H-pyrrolo[3,2-c]pyridin-3-yl)amino)nicotinamide], the IC50 at TYK2-JH2 domain came out at 0.92 nM. Also, the GI50 in data set [1] was found to be 102 nM. Moreover, the microsomal CLint at 1 μM in data set [2] (setting [3]) worked out at 15.9 µL/min/mg; in data set [2] (setting [5]), 48.8 µL/min/mg; in data set [2] (setting [7]), 73 µL/min/mg. For the same compound, the half-life at 1 μM in data set [2] (setting [4]) worked out at 86.9 min; in data set [2] (setting [6]), 28.4 min; in data set [2] (setting [8]), 19 min.
In turn, `[2H]C([2H])([2H])NC(=O)c1cnc(NC(=O)C2CC2)cc1Nc1cn(C)c2ccn(CC)c(=O)c12` [Example 100, 6-(Cyclopropanecarbonylamino)-4-[(5-ethyl-1-methyl-4-oxo-pyrrolo[3,2-c]pyridin-3-yl)amino]-N-(methyl-d3)pyridine-3-carboxamide] came in with a 50% inhibitory concentration (IC50) on TYK2-JH2 domain of 0.887 nM. Besides, in data set [1], the GI50 worked out at 374 nM. Moreover, the microsomal CLint at 1 μM in data set [2] (setting [3]) is less than 18.6 µL/min/mg; in data set [2] (setting [5]), 28.6 µL/min/mg; in data set [2] (setting [7]), 49.5 µL/min/mg. The half-life at 1 μM is more than 186 min in data set [2] (setting [4]), 91.6 min in data set [2] (setting [6]) and 47.7 min in data set [2] (setting [8]).
Take `[2H]C([2H])([2H])NC(=O)c1cnc(NC(=O)C2CC2)cc1Nc1cn(CC)c2ncn([C@H](C)C(F)(F)F)c(=O)c12` (single isomer, unassigned) [Example 254A, (R*)-6-(cyclopropanecarboxamido)-4-((7-ethyl-4-oxo-3-(1,1,1-trifluoropropan-2-yl)-4,7-dihydro-3H-pyrrolo[2,3-d]pyrimidin-5-yl)amino)-N-(methyl-d3)nicotinamide]: the IC50 was determined as 0.868 nM on TYK2-JH2 domain and 44.1 nM on JAK1-JH2 domain. Besides, the JAK1/TYK2 selectivity at TYK2-JH2 domain is 50.81. The microsomal CLint at 1 μM worked out at 4.66 µL/min/mg in data set [2] (setting [3]), 23 µL/min/mg in data set [2] (setting [5]) and 39.4 µL/min/mg in data set [2] (setting [7]). In addition, the half-life at 1 μM came to 297 min in data set [2] (setting [4]), 60.2 min in data set [2] (setting [6]) and 35.1 min in data set [2] (setting [8]).
`[2H]C([2H])([2H])NC(=O)c1cnc(Nc2ccn(C)n2)cc1Nc1ccc2cnn(C([2H])([2H])[2H])c2c1OC` [Example 154, 4-((7-Methoxy-1-(methyl-d3)-1H-indazol-6-yl)amino)-N-(methyl-d3)-6-((1-methyl-1H-pyrazol-3-yl)amino)nicotinamide] yielded an IC50 at TYK2-JH2 domain of 1.19 nM. Further, in data set [1], the GI50 was 145 nM. In addition, the results for the microsomal CLint at 1 μM in data set [2] (setting [3]), in data set [2] (setting [5]) and in data set [2] (setting [7]) were 16.8 µL/min/mg, 31.6 µL/min/mg and 38.9 µL/min/mg, respectively. Further, the results for the half-life at 1 μM in data set [2] (setting [4]), in data set [2] (setting [6]) and in data set [2] (setting [8]) were 82.5 min, 43.9 min and 35.7 min, respectively.
